In the NIST ThermoML archive (doi:10.1016/j.jct.2011.02.012):
± gives the expanded uncertainty stated by the source.

Assay: activity coefficient (dimensionless); of the first substance listed, at infinite dilution; xn = mol fraction of the nth substance listed
Conditions: Liquid, Chromatography, x1 = 0

| activity coefficient (308.15 K) | activity coefficient (318.15 K) | activity coefficient (328.15 K) | activity coefficient (338.15 K) | activity coefficient (348.15 K) | activity coefficient (358.15 K) | activity coefficient (298.15 K) | Compound |
| --- | --- | --- | --- | --- | --- | --- | --- |
| 0.798 ± 0.052 | 0.821 ± 0.053 | 0.842 ± 0.054 | 0.861 ± 0.055 | 0.883 ± 0.056 | 0.771 ± 0.05 | – | CCC(=O)CC [pentan-3-one] + CCn1cc[n+](C)c1.N#C[B-](C#N)(C#N)C#N |
| 1.81 ± 0.12 | 1.65 ± 0.11 | 1.5 ± 0.1 | 1.39 ± 0.09 | 1.3 ± 0.08 | 1.21 ± 0.08 | 2.01 ± 0.14 | CCCO [propan-1-ol] + CCn1cc[n+](C)c1.N#C[B-](C#N)(C#N)C#N |
| 0.707 ± 0.047 | 0.726 ± 0.048 | 0.737 ± 0.049 | 0.753 ± 0.05 | 0.775 ± 0.051 | 0.789 ± 0.051 | 0.686 ± 0.046 | C1CCOC1 [tetrahydrofuran] + CCn1cc[n+](C)c1.N#C[B-](C#N)(C#N)C#N |
| 0.949 ± 0.06 | 0.958 ± 0.06 | 0.966 ± 0.061 | 0.976 ± 0.061 | 0.983 ± 0.062 | 0.992 ± 0.062 | 0.938 ± 0.059 | c1ccsc1 [thiophene] + CCn1cc[n+](C)c1.N#C[B-](C#N)(C#N)C#N |
| 114 ± 8 | 102 ± 7 | 90.2 ± 6.2 | 81.1 ± 5.6 | 73.2 ± 5 | 66.3 ± 4.5 | 131 ± 9 | CCCCCCCCC [nonane] + CCn1cc[n+](C)c1.N#C[B-](C#N)(C#N)C#N |
| 22.7 ± 1.6 | 21.1 ± 1.4 | 19.4 ± 1.3 | 18 ± 1 | 16.9 ± 1.2 | 15.9 ± 1.1 | 24.9 ± 1.7 | CC1CCCCC1 [methylcyclohexane] + CCn1cc[n+](C)c1.N#C[B-](C#N)(C#N)C#N |
| 0.816 ± 0.053 | 0.833 ± 0.054 | 0.847 ± 0.054 | 0.861 ± 0.055 | 0.879 ± 0.056 | 0.796 ± 0.052 | – | CCCC(C)=O [pentan-2-one] + CCn1cc[n+](C)c1.N#C[B-](C#N)(C#N)C#N |
| 32 ± 2.2 | 29.9 ± 2 | 27.8 ± 1.9 | 25.9 ± 1.8 | 24.5 ± 1.7 | 23.1 ± 1.6 | 35 ± 2.4 | C=CCCCCCC [oct-1-ene] + CCn1cc[n+](C)c1.N#C[B-](C#N)(C#N)C#N |
| 73.6 ± 5 | 67.4 ± 4.6 | 60.2 ± 4.1 | 54.8 ± 3.8 | 50.2 ± 3.4 | 46 ± 3.1 | 83.2 ± 5.7 | CCCCCCCC [octane] + CCn1cc[n+](C)c1.N#C[B-](C#N)(C#N)C#N |

The remaining lines, values behind:

| Compound | activity coefficient (308.15 K) | activity coefficient (318.15 K) | activity coefficient (328.15 K) | activity coefficient (338.15 K) | activity coefficient (348.15 K) | activity coefficient (358.15 K) | activity coefficient (298.15 K) |
| --- | --- | --- | --- | --- | --- | --- | --- |
| CCCCC(C)=O [2-hexanone] + CCn1cc[n+](C)c1.N#C[B-](C#N)(C#N)C#N | 1.11 ± 0.07 | 1.12 ± 0.07 | 1.14 ± 0.07 | 1.16 ± 0.07 | 1.17 ± 0.07 | 1.09 ± 0.07 | – |
| CCO [ethanol] + CCn1cc[n+](C)c1.N#C[B-](C#N)(C#N)C#N | 1.43 ± 0.09 | 1.32 ± 0.09 | 1.21 ± 0.08 | 1.13 ± 0.07 | 1.05 ± 0.07 | 0.986 ± 0.062 | 1.58 ± 0.1 |
| Cc1ccc(C)cc1 [1,4-dimethylbenzene] + CCn1cc[n+](C)c1.N#C[B-](C#N)(C#N)C#N | – | 2.45 ± 0.17 | 2.48 ± 0.17 | 2.5 ± 0.17 | 2.52 ± 0.17 | 2.54 ± 0.17 | – |
| C=CCCCC [hex-1-ene] + CCn1cc[n+](C)c1.N#C[B-](C#N)(C#N)C#N | 13.5 ± 0.9 | 12.9 ± 0.9 | 12.2 ± 0.8 | 11.6 ± 0.8 | 11.2 ± 0.8 | 10.6 ± 0.7 | 14.4 ± 1 |
| C1CCCCCCC1 [cyclooctane] + CCn1cc[n+](C)c1.N#C[B-](C#N)(C#N)C#N | 26.6 ± 1.8 | 24.7 ± 1.7 | 22.5 ± 1.5 | 20.8 ± 1.4 | 19.2 ± 1.3 | 17.9 ± 1.2 | 29.7 ± 2 |
| CO [methanol] + CCn1cc[n+](C)c1.N#C[B-](C#N)(C#N)C#N | 1.02 ± 0.06 | 0.948 ± 0.06 | 0.886 ± 0.056 | 0.835 ± 0.054 | 0.788 ± 0.051 | 0.748 ± 0.049 | 1.1 ± 0.07 |
| CCCCO [butan-1-ol] + CCn1cc[n+](C)c1.N#C[B-](C#N)(C#N)C#N | 2.41 ± 0.16 | 2.16 ± 0.15 | 1.95 ± 0.13 | 1.79 ± 0.12 | 1.65 ± 0.11 | 1.53 ± 0.1 | 2.72 ± 0.19 |
| CCOCC [diethyl ether] + CCn1cc[n+](C)c1.N#C[B-](C#N)(C#N)C#N | 2.72 ± 0.19 | 2.73 ± 0.19 | 2.74 ± 0.19 | 2.75 ± 0.19 | 2.76 ± 0.19 | 2.77 ± 0.19 | 2.71 ± 0.18 |
| c1ccccc1 [benzene] + CCn1cc[n+](C)c1.N#C[B-](C#N)(C#N)C#N | 1.15 ± 0.07 | 1.17 ± 0.07 | 1.18 ± 0.08 | 1.19 ± 0.08 | 1.2 ± 0.08 | 1.21 ± 0.08 | 1.13 ± 0.07 |
| CC(C)=O [acetone] + CCn1cc[n+](C)c1.N#C[B-](C#N)(C#N)C#N | 0.443 ± 0.036 | 0.454 ± 0.036 | 0.466 ± 0.036 | 0.475 ± 0.037 | 0.488 ± 0.037 | 0.43 ± 0.035 | – |
| C1=CCCCC1 [cyclohexene] + CCn1cc[n+](C)c1.N#C[B-](C#N)(C#N)C#N | 6.92 ± 0.47 | 6.67 ± 0.45 | 6.44 ± 0.44 | 6.17 ± 0.42 | 6.01 ± 0.41 | 5.81 ± 0.4 | 7.25 ± 0.49 |
| COC(C)(C)C [2-methoxy-2-methylpropane] + CCn1cc[n+](C)c1.N#C[B-](C#N)(C#N)C#N | 2.86 ± 0.19 | 2.9 ± 0.2 | 2.94 ± 0.2 | 2.97 ± 0.2 | 3.01 ± 0.2 | 3.04 ± 0.21 | 2.82 ± 0.19 |
| C=CCCCCC [1-heptene] + CCn1cc[n+](C)c1.N#C[B-](C#N)(C#N)C#N | 20.4 ± 1.4 | 19.3 ± 1.3 | 18.3 ± 1.3 | 17.3 ± 1.2 | 16.6 ± 1.1 | 15.7 ± 1.1 | 22 ± 1.5 |
| CCCCCCC [heptane] + CCn1cc[n+](C)c1.N#C[B-](C#N)(C#N)C#N | 47.9 ± 3.3 | 44.1 ± 3 | 39.9 ± 2.7 | 36.7 ± 2.5 | 34.3 ± 2.3 | 31.7 ± 2.2 | 53.4 ± 3.7 |
| CCC(C)(C)OC [2-methoxy-2-methylbutane] + CCn1cc[n+](C)c1.N#C[B-](C#N)(C#N)C#N | 4.19 ± 0.29 | 4.22 ± 0.29 | 4.25 ± 0.29 | 4.28 ± 0.29 | 4.3 ± 0.29 | 4.32 ± 0.29 | 4.15 ± 0.28 |
